Test results as given in US20230233569A1 (Revolution Medicines, Inc., priority 2020, published 2023).
pIC50: −log10 of the molar value. Where two headings read alike, the source gives them in different places.

Assays:
Assay in all cases: Ras-Raf disruption / FRET / MOA assay (BRAF RBD)
Format in all cases: biochemical
KRAS G12C = KRAS G12C (Homo sapiens, UniProt P01116+P62937, G12C); details: with Cyclophilin A
In short: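 TR-FRET read-out after 1.5 h with anti-His Eu-W1024 (10 nM) and anti-GST APC (50 nM), following 3 h at 25 °C of compound (top 30 μM, 3-fold, 10 points) with 25 μM Cyclophilin A, 12.5 nM GMPPNP-loaded K-Ras G12C and 50 nM BRAF RBD; IC50 reported.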

NRAS Q61R = NRAS Q61R (Homo sapiens, UniProt P01111+P62937, Q61R)
NRAS Q61R, sequence (P01111 whole entry Q61R): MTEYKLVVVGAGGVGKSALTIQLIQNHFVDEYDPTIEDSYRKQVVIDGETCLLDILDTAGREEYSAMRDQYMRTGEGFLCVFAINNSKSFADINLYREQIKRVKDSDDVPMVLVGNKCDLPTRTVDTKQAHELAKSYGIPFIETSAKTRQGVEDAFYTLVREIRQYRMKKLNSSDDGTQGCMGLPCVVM
NRAS Q61R, sequence (P62937 whole entry): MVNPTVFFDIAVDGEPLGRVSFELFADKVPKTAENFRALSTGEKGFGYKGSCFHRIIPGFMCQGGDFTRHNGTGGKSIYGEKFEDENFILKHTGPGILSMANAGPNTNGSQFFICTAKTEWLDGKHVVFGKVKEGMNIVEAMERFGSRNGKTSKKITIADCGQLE
In short: (§1)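 Compound-induced Ras–Cyclophilin A ternary complex disrupting BRAF RBD binding, read as IC50 from reduced TR-FRET ratio relative to DMSO. Final: Ras-GMPPNP 12.5 nM, BRAF RBD 50 nM, Cyclophilin A 25 μM, top compound 30 μM (3-fold, 10 points); 3 h at 25 °C, then 1.5 h with detection antibodies.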

KRAS G12S = KRAS G12S (Homo sapiens, UniProt P01116+P62937, G12S); details: with Cyclophilin A
KRAS G12S, sequence (P01116 1-169 isoform P01116-2 G12S limits assumed): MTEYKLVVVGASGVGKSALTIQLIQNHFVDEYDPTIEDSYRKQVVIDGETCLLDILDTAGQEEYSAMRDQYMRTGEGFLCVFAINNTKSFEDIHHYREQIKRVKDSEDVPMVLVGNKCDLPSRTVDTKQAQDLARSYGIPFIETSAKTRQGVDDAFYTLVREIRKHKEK
KRAS G12S, sequence (P62937 whole entry): as the sequence (P62937 whole entry) above
In short: as §1

KRAS G13C = KRAS G13C (Homo sapiens, UniProt P01116+P62937, G13C); details: with Cyclophilin A
KRAS G13C, sequence (P01116 1-169 isoform P01116-2 G13C limits assumed): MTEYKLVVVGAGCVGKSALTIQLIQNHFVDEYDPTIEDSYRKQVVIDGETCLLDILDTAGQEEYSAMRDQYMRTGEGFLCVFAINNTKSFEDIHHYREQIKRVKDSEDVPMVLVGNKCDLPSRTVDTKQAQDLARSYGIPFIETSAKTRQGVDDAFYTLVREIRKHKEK
KRAS G13C, sequence (P62937 whole entry): as the sequence (P62937 whole entry) above
In short: as §1

KRAS G13D = KRAS G13D (Homo sapiens, UniProt P01116+P62937, G13D); details: with Cyclophilin A
KRAS G13D, sequence (P01116 1-169 isoform P01116-2 G13D limits assumed): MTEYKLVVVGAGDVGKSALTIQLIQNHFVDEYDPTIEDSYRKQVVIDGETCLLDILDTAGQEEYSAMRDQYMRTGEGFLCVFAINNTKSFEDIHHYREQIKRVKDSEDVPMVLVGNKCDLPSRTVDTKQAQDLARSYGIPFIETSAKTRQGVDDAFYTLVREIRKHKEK
KRAS G13D, sequence (P62937 whole entry): as the sequence (P62937 whole entry) above
In short: as §1

KRAS G12V = KRAS G12V (Homo sapiens, UniProt P01116+P62937, G12V); details: with Cyclophilin A
KRAS G12V, sequence (P01116 1-169 isoform P01116-2 G12V limits assumed): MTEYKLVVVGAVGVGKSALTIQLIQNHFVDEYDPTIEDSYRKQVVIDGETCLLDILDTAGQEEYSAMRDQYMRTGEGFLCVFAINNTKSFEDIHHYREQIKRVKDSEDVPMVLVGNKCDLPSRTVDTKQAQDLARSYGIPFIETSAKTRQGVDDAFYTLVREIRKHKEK
KRAS G12V, sequence (P62937 whole entry): as the sequence (P62937 whole entry) above
In short: as §1

NRAS WT = NRAS WT (Homo sapiens, UniProt P01111+P62937)
NRAS WT, sequence (P01111 whole entry): as the sequence (P01111 whole entry Q61R) above, with R61Q counted along it
NRAS WT, sequence (P62937 whole entry): as the sequence (P62937 whole entry) above
In short: as §1

KRAS Q61H = KRAS Q61H (Homo sapiens, UniProt P01116+P62937, Q61H)
KRAS Q61H, sequence (P01116 1-169 isoform P01116-2 Q61H limits assumed): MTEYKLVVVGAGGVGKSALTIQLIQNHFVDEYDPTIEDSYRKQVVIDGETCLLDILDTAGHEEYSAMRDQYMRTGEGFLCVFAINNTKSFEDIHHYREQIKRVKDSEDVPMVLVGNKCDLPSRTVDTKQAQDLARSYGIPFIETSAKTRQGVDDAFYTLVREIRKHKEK
KRAS Q61H, sequence (P62937 whole entry): as the sequence (P62937 whole entry) above
In short: as §1

KRAS G12D = KRAS G12D (Homo sapiens, UniProt P01116+P62937, G12D); details: with Cyclophilin A
KRAS G12D, sequence (P01116 1-169 isoform P01116-2 G12D limits assumed): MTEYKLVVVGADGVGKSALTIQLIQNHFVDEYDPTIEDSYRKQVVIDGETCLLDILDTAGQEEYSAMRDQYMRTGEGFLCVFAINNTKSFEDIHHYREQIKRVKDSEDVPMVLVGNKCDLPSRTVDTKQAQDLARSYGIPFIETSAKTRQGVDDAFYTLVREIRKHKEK
KRAS G12D, sequence (P62937 whole entry): as the sequence (P62937 whole entry) above
In short: as §1

NRAS G12C = NRAS G12C (Homo sapiens, UniProt P01111+P62937, G12C)
NRAS G12C, sequence (P01111 whole entry G12C): as the sequence (P01111 whole entry Q61R) above, with G12C, R61Q counted along it
NRAS G12C, sequence (P62937 whole entry): as the sequence (P62937 whole entry) above
In short: as §1

KRAS WT = KRAS WT (Homo sapiens, UniProt P01116+P62937); details: with Cyclophilin A
KRAS WT, sequence (P01116 1-169 isoform P01116-2 limits assumed): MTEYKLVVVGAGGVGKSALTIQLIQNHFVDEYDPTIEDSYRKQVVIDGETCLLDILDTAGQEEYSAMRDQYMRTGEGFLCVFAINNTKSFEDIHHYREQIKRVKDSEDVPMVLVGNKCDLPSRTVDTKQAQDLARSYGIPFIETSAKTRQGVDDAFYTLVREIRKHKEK
KRAS WT, sequence (P62937 whole entry): as the sequence (P62937 whole entry) above
In short: as §1

NRAS Q61K = NRAS Q61K (Homo sapiens, UniProt P01111+P62937, Q61K)
NRAS Q61K, sequence (P01111 whole entry Q61K): as the sequence (P01111 whole entry Q61R) above, with R61K counted along it
NRAS Q61K, sequence (P62937 whole entry): as the sequence (P62937 whole entry) above
In short: as §1

[1] = Ras-Raf disruption, read-out: KRAS G12C FRET data IC50
[2] = NRAS Q61R, read-out: NRAS Q61R FRET data IC50
[3] = Ras-Raf disruption, read-out: KRAS G12S FRET data IC50
[4] = Ras-Raf disruption, read-out: KRAS G13C FRET data IC50
[5] = Ras-Raf disruption, read-out: KRAS G13D FRET data IC50
[6] = Ras-Raf disruption, read-out: KRAS G12V FRET data IC50
[7] = NRAS WT, read-out: NRAS WT FRET data IC50
[8] = KRAS Q61H, read-out: KRAS Q61H FRET data IC50
[9] = Ras-Raf disruption, read-out: KRAS G12D FRET data IC50
[10] = NRAS G12C, read-out: NRAS G12C FRET data IC50
[11] = Ras-Raf disruption, read-out: KRAS WT FRET data IC50
[12] = NRAS Q61K, read-out: NRAS Q61K FRET data IC50

KRAS G12C, sequence (P01116 1-169 isoform P01116-2 G12C limits assumed): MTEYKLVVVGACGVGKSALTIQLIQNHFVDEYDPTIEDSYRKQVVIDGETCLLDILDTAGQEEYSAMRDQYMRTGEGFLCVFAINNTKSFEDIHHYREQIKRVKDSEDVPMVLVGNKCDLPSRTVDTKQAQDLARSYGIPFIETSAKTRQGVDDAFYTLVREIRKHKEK
KRAS G12C, sequence (P62937 whole entry): as the sequence (P62937 whole entry) above

SMILES | pIC50 (KRAS G12C; [1]) | pIC50 (NRAS Q61R; [2]) | pIC50 (KRAS G12S; [3]) | pIC50 (KRAS G13C; [4]) | pIC50 (KRAS G13D; [5]) | pIC50 (KRAS G12V; [6]) | pIC50 (NRAS WT; [7]) | pIC50 (KRAS Q61H; [8]) | pIC50 (KRAS G12D; [9]) | pIC50 (NRAS G12C; [10]) | pIC50 (KRAS WT; [11]) | pIC50 (NRAS Q61K; [12]) | also measured
CCOC(=O)[C@H]1O[C@@H]1C(=O)N1CC[C@H](C(=O)N(C)[C@H](C(=O)N[C@H]2Cc3cc(O)cc(c3)-c3ccc4c(c3)c(c(-c3cccnc3[C@H](C)OC)n4CC)CC(C)(C)COC(=O)[C@@H]3CCCN(N3)C2=O)C(C)C)C1 [Example 329] | > 8.00 | 7.00 to 8.00 | 7.00 to 8.00 | > 8.00 | 7.00 to 8.00 | 7.00 to 8.00 | 7.00 to 8.00 | 7.00 to 8.00 | 6.00 to 7.00 | > 8.00 | 7.00 to 8.00 | 7.00 to 8.00 | 
CCn1c(-c2cccnc2[C@H](C)OC)c2c3cc(ccc31)-c1cc(O)cc(c1)C[C@H](NC(=O)[C@H](C(C)C)N(C)C(=O)N1C[C@@H]3[C@H]1CCN3C(=O)[C@H]1CN1)C(=O)N1CCC[C@H](N1)C(=O)OCC(C)(C)C2 (atropisomer, axis not shown) [Example 250] | 7.00 to 8.00 | 5.00 to 6.00 | 6.00 to 7.00 | 6.00 to 7.00 | 5.00 to 6.00 | 6.00 to 7.00 | 6.00 to 7.00 | 6.00 to 7.00 | 5.00 to 6.00 | 6.00 to 7.00 | 6.00 to 7.00 | 5.00 to 6.00 | 
CCn1c(-c2cccnc2[C@H](C)OC)c2c3cc(ccc31)-c1csc(n1)C[C@H](NC(=O)[C@H](C(C)C)N(C)C(=O)N1CCN(C(=O)[C@@H]3CN3)[C@H](C)C1)C(=O)N1CCC[C@H](N1)C(=O)OCC(C)(C)C2 [Example 300] | 6.00 to 7.00 | 6.00 to 7.00 | 6.00 to 7.00 | 6.00 to 7.00 | 6.00 to 7.00 | 6.00 to 7.00 | 6.00 to 7.00 | 7.00 to 8.00 | 6.00 to 7.00 | 7.00 to 8.00 | 6.00 to 7.00 | 7.00 to 8.00 | 
CCn1c(-c2cccnc2[C@H](C)OC)c2c3cc(ccc31)-c1cc(O)cc(c1)C[C@H](NC(=O)[C@H](C(C)C)N(C)C(=O)CN(C)C(=O)[C@H]1C[C@@H]3N[C@@H]3C1)C(=O)N1CCC[C@H](N1)C(=O)OCC(C)(C)C2 (atropisomer, axis not shown) [Example 285] | 7.00 to 8.00 | 6.00 to 7.00 | 7.00 to 8.00 | > 8.00 | 7.00 to 8.00 | 7.00 to 8.00 | 7.00 to 8.00 | 7.00 to 8.00 | 7.00 to 8.00 | 7.00 to 8.00 | 7.00 to 8.00 | 6.00 to 7.00 | 
CCn1c(-c2cccnc2[C@H](C)OC)c2c3cc(ccc31)-c1csc(n1)C[C@H](NC(=O)[C@H](C(C)C)N(C)C(=O)N1CC(CN(C)C(=O)[C@H]3CN3)C1)C(=O)N1CCC[C@H](N1)C(=O)OCC(C)(C)C2 (atropisomer, axis not shown) [Example 224] | 7.00 to 8.00 | 7.00 to 8.00 | 6.00 to 7.00 | 6.00 to 7.00 | 6.00 to 7.00 | 6.00 to 7.00 | 7.00 to 8.00 | 7.00 to 8.00 | 6.00 to 7.00 | 7.00 to 8.00 | 6.00 to 7.00 | 7.00 to 8.00 | 
CCn1c(-c2cccnc2[C@H](C)OC)c2c3cc(ccc31)-c1cc(O)cc(c1)C[C@H](NC(=O)[C@H](C(C)C)N(C)C(=O)C1CCN(S(=O)(=O)[C@@H]3CN3C)CC1)C(=O)N1CCC[C@H](N1)C(=O)OCC(C)(C)C2 (single isomer, unassigned) [Example 119] | 7.00 to 8.00 | 5.00 to 6.00 | 6.00 to 7.00 | 7.00 to 8.00 | 6.00 to 7.00 | 6.00 to 7.00 | 6.00 to 7.00 | 7.00 to 8.00 | 5.00 to 6.00 | 6.00 to 7.00 | 6.00 to 7.00 | 6.00 to 7.00 | 
CCn1c(-c2cccnc2[C@H](C)OC)c2c3cc(ccc31)-c1cc(O)cc(c1)C[C@H](NC(=O)[C@H](C(C)C)N(C)C(=O)N(C)CCN(C)C(=O)[C@H]1CN1)C(=O)N1CCC[C@H](N1)C(=O)OCC(C)(C)C2 (atropisomer, axis not shown) [Example 204] | > 8.00 | 6.00 to 7.00 | 7.00 to 8.00 | 7.00 to 8.00 | 7.00 to 8.00 | 7.00 to 8.00 | 7.00 to 8.00 | 7.00 to 8.00 | 6.00 to 7.00 | > 8.00 | 7.00 to 8.00 | 6.00 to 7.00 | 
CCn1c(-c2cccnc2[C@H](C)OC)c2c3cc(ccc31)-c1csc(n1)C[C@H](NC(=O)[C@H](C(C)C)N(C)C(=O)N1CCN(C(=O)[C@@H]3CN3)[C@@H](C)C1)C(=O)N1CCC[C@H](N1)C(=O)OCC(C)(C)C2 [Example 298] | 7.00 to 8.00 | 7.00 to 8.00 | 7.00 to 8.00 | 6.00 to 7.00 | 6.00 to 7.00 | 6.00 to 7.00 | 7.00 to 8.00 | 7.00 to 8.00 | 6.00 to 7.00 | 7.00 to 8.00 | 7.00 to 8.00 | 7.00 to 8.00 | 
CCn1c(-c2cccnc2[C@H](C)OC)c2c3cc(ccc31)-c1cc(O)cc(c1)C[C@H](NC(=O)[C@H](C(C)C)N(C)C(=O)C1CN(S(=O)(=O)[C@H]3CN3C)C1)C(=O)N1CCC[C@H](N1)C(=O)OCC(C)(C)C2 (single isomer, unassigned) [Example 117] | 7.00 to 8.00 | 6.00 to 7.00 | 6.00 to 7.00 | 7.00 to 8.00 | 6.00 to 7.00 | 6.00 to 7.00 | 7.00 to 8.00 | 7.00 to 8.00 | 5.00 to 6.00 | 6.00 to 7.00 | 6.00 to 7.00 | 6.00 to 7.00 | 
CCn1c(-c2cccnc2[C@H](C)OC)c2c3cc(ccc31)-c1csc(n1)C[C@H](NC(=O)[C@H](C1CCCC1)N(C)C(=O)CN(C)C(=O)[C@@H]1N[C@@H]1C1CC1)C(=O)N1CCC[C@H](N1)C(=O)OCC(C)(C)C2 [Example 210] |  |  |  |  |  |  |  |  |  |  |  |  | pIC50 (KRAS G12C; KRAS G12C FRET data IC50, Ras-Raf disruption): 6.00 to 7.00; pIC50 (NRAS Q61R): 5.00 to 6.00; pIC50 (KRAS G12S; KRAS G12S FRET data IC50, Ras-Raf disruption): 5.00 to 6.00; pIC50 (KRAS G13C; KRAS G13C FRET data IC50, Ras-Raf disruption): 5.00 to 6.00; pIC50 (KRAS G13D; KRAS G13D FRET data IC50, Ras-Raf disruption): 5.00 to 6.00; pIC50 (KRAS G12V; KRAS G12V FRET data IC50, Ras-Raf disruption): 5.00 to 6.00; pIC50 (NRAS WT): 5.00 to 6.00; pIC50 (KRAS Q61H): 6.00 to 7.00; pIC50 (KRAS G12D; KRAS G12D FRET data IC50, Ras-Raf disruption): 5.00 to 6.00; pIC50 (NRAS G12C; NRAS G12C FRET data IC50, NRAS G12C): 6.00 to 7.00; pIC50 (KRAS WT; KRAS WT FRET data IC50, Ras-Raf disruption): 5.00 to 6.00; pIC50 (NRAS Q61K): 5.00 to 6.00
CCn1c(-c2cccnc2[C@H](C)OC)c2c3cc(ccc31)-c1cccc(c1)C[C@H](NC(=O)[C@H](C1CCCC1)N1CC[C@]3(CCN(C(=O)[C@@H]4N[C@@H]4C4CC4)C3)C1=O)C(=O)N1CCC[C@H](N1)C(=O)OCC(C)(C)C2 [Example 313] | 6.00 to 7.00 | 5.00 to 6.00 | 5.00 to 6.00 | 6.00 to 7.00 | 5.00 to 6.00 | 5.00 to 6.00 | 5.00 to 6.00 |  | 6.00 to 7.00 | 6.00 to 7.00 | 5.00 to 6.00 | 5.00 to 6.00 | 
CCn1c(-c2cccnc2[C@H](C)OC)c2c3cc(ccc31)-c1csc(n1)C[C@H](NC(=O)[C@H](C(C)C)N(C)C(=O)N1CC(N(C)C(=O)[C@H]3CN3)C1)C(=O)N1CCC[C@H](N1)C(=O)OCC(C)(C)C2 [Example 218] |  | 6.00 to 7.00 | 6.00 to 7.00 | 6.00 to 7.00 | 6.00 to 7.00 | 6.00 to 7.00 | 6.00 to 7.00 | 7.00 to 8.00 | 5.00 to 6.00 | 7.00 to 8.00 | 6.00 to 7.00 | 7.00 to 8.00 | 
